From patent US20020103111A1, “Inhibitors of MAdCAM-1-mediated interactions and methods of use therefor” (Millennium Pharmaceuticals, Inc., priority 1996, published 2002)
Where two headings read alike, the source gives them in different places. Bridge positions count the residues as written; N and C are the ends. Square brackets hold non-standard residues; d marks the D form. Peptide text beside a SMILES is read from it. * marks the point of attachment. Butanoyl(4-pyren-1-yl) = O=C(CCCc1ccc2ccc3cccc4ccc1c2c34)*; NMeL = CN[C@@H](CC(C)C)C(=O)O

Biological target: T1, murine MAdCAM-1 (MAdCAM-1/mCk fusion protein); α4β7-bearing HUT 78 cells (Homo sapiens, UniProt P13612+P26010)
T1 construct: host or cells: HUT 78 cells (endogenous α4β7); The MAdCAM-1/mCk partner was made in house in baculovirus-infected Sf9 insect cells, used as neat supernatant and captured by rat anti-mCk antibody
T1 sequence (P13612 34-1032): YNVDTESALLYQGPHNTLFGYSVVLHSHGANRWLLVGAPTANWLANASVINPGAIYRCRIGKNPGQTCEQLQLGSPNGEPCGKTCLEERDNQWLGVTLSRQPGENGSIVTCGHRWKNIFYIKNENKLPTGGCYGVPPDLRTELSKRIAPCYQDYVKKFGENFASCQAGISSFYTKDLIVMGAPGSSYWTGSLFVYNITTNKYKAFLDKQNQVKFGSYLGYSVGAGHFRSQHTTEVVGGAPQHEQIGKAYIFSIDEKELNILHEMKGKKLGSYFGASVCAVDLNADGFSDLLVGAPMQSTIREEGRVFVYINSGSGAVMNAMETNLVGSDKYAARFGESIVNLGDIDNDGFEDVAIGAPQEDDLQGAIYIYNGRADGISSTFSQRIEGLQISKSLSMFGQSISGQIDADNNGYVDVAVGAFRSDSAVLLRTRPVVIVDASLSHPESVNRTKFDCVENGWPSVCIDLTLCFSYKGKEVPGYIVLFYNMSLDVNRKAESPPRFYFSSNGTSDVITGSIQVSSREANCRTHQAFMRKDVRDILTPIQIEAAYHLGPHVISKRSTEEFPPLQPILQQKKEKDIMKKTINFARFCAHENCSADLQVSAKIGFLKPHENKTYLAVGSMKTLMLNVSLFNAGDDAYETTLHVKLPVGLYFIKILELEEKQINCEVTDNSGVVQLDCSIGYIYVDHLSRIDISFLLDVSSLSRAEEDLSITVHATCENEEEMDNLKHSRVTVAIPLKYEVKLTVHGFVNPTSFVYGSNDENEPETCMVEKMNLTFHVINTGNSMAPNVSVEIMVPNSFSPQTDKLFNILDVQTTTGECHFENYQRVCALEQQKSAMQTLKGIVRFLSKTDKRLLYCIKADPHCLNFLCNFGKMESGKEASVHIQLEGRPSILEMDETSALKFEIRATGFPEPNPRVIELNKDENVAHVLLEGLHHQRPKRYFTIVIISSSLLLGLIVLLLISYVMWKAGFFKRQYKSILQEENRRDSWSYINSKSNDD
T1 sequence (P26010 20-798): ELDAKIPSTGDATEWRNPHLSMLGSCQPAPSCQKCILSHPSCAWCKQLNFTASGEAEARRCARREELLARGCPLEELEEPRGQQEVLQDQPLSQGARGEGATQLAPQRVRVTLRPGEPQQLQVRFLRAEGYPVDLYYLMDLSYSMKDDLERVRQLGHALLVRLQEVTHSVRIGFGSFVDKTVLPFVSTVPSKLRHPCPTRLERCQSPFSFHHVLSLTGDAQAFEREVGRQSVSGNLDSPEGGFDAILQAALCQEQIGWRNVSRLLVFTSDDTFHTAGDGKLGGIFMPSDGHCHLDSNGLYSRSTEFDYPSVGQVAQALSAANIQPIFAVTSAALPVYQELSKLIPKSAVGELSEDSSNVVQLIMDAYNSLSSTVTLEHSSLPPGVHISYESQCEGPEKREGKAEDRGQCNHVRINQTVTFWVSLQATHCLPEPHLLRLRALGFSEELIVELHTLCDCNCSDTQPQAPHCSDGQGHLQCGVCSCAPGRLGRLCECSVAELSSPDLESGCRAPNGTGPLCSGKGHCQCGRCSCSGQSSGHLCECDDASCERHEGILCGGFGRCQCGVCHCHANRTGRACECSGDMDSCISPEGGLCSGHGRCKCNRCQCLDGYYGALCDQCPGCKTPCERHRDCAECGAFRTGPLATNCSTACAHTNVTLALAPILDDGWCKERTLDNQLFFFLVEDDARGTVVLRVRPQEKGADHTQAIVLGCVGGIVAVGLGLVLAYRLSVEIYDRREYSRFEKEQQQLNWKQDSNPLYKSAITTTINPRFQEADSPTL
Assay: Adhesion of HUT 78 cells to MAdCAM-1/mCk fusion protein bound via capture antibody
Assay type: cell-based
Settings: for IC50: HUT 78 cell adhesion to MAdCAM-1/mCk, average of two determinations
Method: The compounds of the present invention were evaluated for their biological properties.
A soluble fusion protein comprising murine MAdCAM-1 was produced in a baculovirus expression system and used in the adhesion assay. A fusion gene in which sequences encoding the signal peptide and extracellular domain of murine MAdCAM-1 were fused to sequences encoding a constant region of the murine kappa light chain (mCk) was constructed, and cloned into a baculovirus shuttle vector. Fusion protein produced from the resulting construct contained the integrin binding sequences of murine MAdCAM-1 at the amino-terminus, and the mCk sequence at the carboxy-terminus. Recombinant baculovirus encoding the fusion protein was harvested from infected Sf9 insect cells.
Human T-cell lymphoma cells (HUT 78 cells) activated with Mn^+2 were used for the adhesion assay in a 96-well format. HUT 78 cells were labelled by preincubation with ECECF-AM stain (Molecular Probes). Assays were conducted in a final volume of 200 μl. The adhesion of HUT 78 cells to MAdCAM-1/mCk fusion protein bound to wells via rat anti-mCk capture antibody was assessed in the presence or absence of each compound. […] Percent inhibition and IC50 values were determined.
HUT 78 cells (a human T cell lymphoma line; American Type Culture Collection, Accession No. ATCC TIB 161) were maintained in culture for up to one month in RPMI 1640 supplemented with 10% FCS, 20 mM HEPES, and Pen-Strep (1:100). Just prior to use in adhesion assays, cells were labeled with BCECF-AM as follows: 1×10^7 cells were pelleted at 1000 rpm for 10 minutes and resuspended in 25 mL cold PBS (Phosphate Buffered Saline). The cells were pelleted again, resuspended in cold PBS, and pelleted again. The cell pellet was resuspended in 25 ml PBS and labeled with 50 μl BCECF-AM (1 μg/μL in DMSO) for 30 minutes at 37° C. (BCECF-AM; 2′,7′-bis-(2-carboxyethyl)-5-(and-6)-carboxyflourescein, acetoxymethyl ester). The labeled cells were pelleted at 700 rpm for 10 minutes, resuspended in 25 ml cold Assay Buffer and pelleted.
The assay was performed in a 96-well format. Plates were coated overnight at 4° C. with 53 μl/well of a 5 μg/mL solution of rat anti-mCk in carbonate buffer. The plates were blocked for 1 hour at 37° C. with 100 μL/well of 1% BSA in PBS. The BSA/PBS solution was removed, and 50 μL of MAdCAM-mCk supernatant was added neat to each well. The assay was conducted under conditions in which capture antibody was the limiting reagent.
Cell adhesion was measured in the presence or absence of compounds. The compounds were resuspended in 100% DMSO, subsequently diluted 1:10 in water, and finally diluted again 1:10 in the assay: 50 μL of 2X Assay Bufler, 30 μL water, 20 μL of compound were added to each well. […] Cell adhesion occurred in 30 minutes at ambient temperature, after which plates were washed with 50 mM Tris/2 mM MnCl2, pH 7.2 using an EL 404 Microplate Autowasher (BIO-TEK Instruments) using the following wash parameters: wash volume=500 μL; two wash cycles; wash depth=80; aspirating after each wash.
Additional determinations were conducted as needed, so that each IC50 was determined over a range which encompassed the IC50. Over this range, Four different concentrations were tested in duplicate.
For each compound, a ratio was determined as follows: An average of the readings from duplicate wells was divided by an average of eight control wells (adhesion in the absence of any compound). […] In addition, the concentration (μM) of compound used was plotted against the resulting ratios.
The IC50 was then determined using Kaleidograph software (Abelbeck Software). The complete procedure was repeated again using duplicate wells for each point.

[1] = HuT78, 500 μM compound, HUT 78 cells, Mn2+ activated, read-out: % Adhesion Inhibition 500 μM
[2] = HuT78, read-out: % Adhesion Inhibition

Compound	inhibition at 500 µM [1]	IC50 (read-out: IC50)	also measured
CC(=O)N[C@H]1CSSC[C@@H](C(N)=O)NC(=O)[C@H](CC(C)C)NC(=O)[C@H](CO)NC(=O)[C@H]([C@@H](C)O)NC(=O)[C@H](CC(=O)O)NC(=O)[C@H](CC(C)C)NC1=O [Example 4, Ac-Cys*-Leu-Asp-Thr-Ser-Leu-Cys*] (Ac-CLDTSLC-NH2; disulfide 1-7)			inhibition at 250 µM (HuT78, @250 μM compound, HUT 78 cells, read-out: % Adhesion Inhibition): 51%
CC(=O)N[C@H]1CSSC[C@@H](C(N)=O)NC(=O)CNC(=O)[C@H](CC(C)C)NC(=O)[C@H](CO)NC(=O)[C@H]([C@@H](C)O)NC(=O)[C@H](CC(=O)O)NC(=O)[C@H](CC(C)C)NC(=O)CNC1=O [Example 5] (Ac-CGLDTSLGC-NH2; disulfide 1-9)			inhibition at 200 µM (HuT78, @200 μM compound, HUT 78 cells): 45%
CC(=O)N[C@@H](CCCNC(=N)N)C(=O)NCC(=O)N[C@@H](CC(C)C)C(=O)N[C@@H](CC(=O)O)C(=O)N[C@H](C(=O)N[C@@H](CO)C(=O)N[C@@H](CC(C)C)C(N)=O)[C@@H](C)O [Example 8, Ac-Arg-Gly-Leu-Asp-Thr-Ser-Leu] (Ac-RGLDTSL-NH2)	35%		
CC(=O)NCC(=O)N[C@@H](CC(C)C)C(=O)N[C@@H](CC(=O)O)C(=O)N[C@H](C(=O)N[C@@H](CO)C(=O)N[C@@H](CC(C)C)C(N)=O)[C@@H](C)O [Example 9, Ac-Gly-Leu-Asp-Thr-Ser-Leu] (Ac-GLDTSL-NH2)	58%		
CC(=O)N[C@@H](CCCNC(=N)N)C(=O)NCC(=O)N[C@@H](CC(C)C)C(=O)N[C@@H](CC(=O)O)C(=O)N[C@H](C(=O)N[C@@H](CO)C(N)=O)[C@@H](C)O [Example 12, Ac-Arg-Gly-Leu-Asp-Thr-Ser] (Ac-RGLDTS-NH2)	31%	1790 µM	
CC(=O)N(C)[C@@H](CC(C)C)C(=O)N[C@@H](CC(C)C)C(=O)N[C@@H](CC(=O)O)C(=O)N[C@H](C(=O)N[C@@H](CO)C(=O)N[C@@H](CC(C)C)C(N)=O)[C@@H](C)O [Example 17, Ac-MeLeu-Leu-Asp-Thr-Ser-Leu] (Ac-[NMeL]LDTSL-NH2)	28%		
CC(C)C[C@H](NC(=O)[C@H](CO)NC(=O)[C@@H](NC(=O)[C@H](CC(=O)O)NC(=O)[C@H](CC(C)C)NC(=O)CCCCCc1ccccc1)[C@@H](C)O)C(N)=O [Example 18, Phx-Leu-Asp-Thr-Ser-Leu]	32%	818 µM	
CC(C)Cc1ccc(C(C)C(=O)N[C@@H](CC(C)C)C(=O)N[C@@H](CC(=O)O)C(=O)N[C@H](C(=O)N[C@@H](CO)C(=O)N[C@@H](CC(C)C)C(N)=O)[C@@H](C)O)cc1 (stereo partly drawn) [Example 19, Impa-Leu-Asp-Thr-Ser-Leu]	44%	1140 µM	
CC(C)C[C@H](NC(=O)[C@H](CO)NC(=O)[C@@H](NC(=O)[C@H](CC(=O)O)NC(=O)[C@H](CC(C)C)NC(=O)Cc1ccc(-c2ccccc2)cc1)[C@@H](C)O)C(N)=O [Example 20, Bipa-Leu-Asp-Thr-Ser-Leu]	54%	485 µM	
CC(C)C[C@H](NC(=O)[C@H](CO)NC(=O)[C@@H](NC(=O)[C@H](CC(=O)O)NC(=O)[C@H](CC(C)C)NC(=O)Cc1cccc2ccccc12)[C@@H](C)O)C(N)=O [Example 21, Npa-Leu-Asp-Thr-Ser-Leu]	39%	548 µM	
CCCCCCCc1ccc(C(=O)N[C@@H](CC(C)C)C(=O)N[C@@H](CC(=O)O)C(=O)N[C@H](C(=O)N[C@@H](CO)C(=O)N[C@@H](CC(C)C)C(N)=O)[C@@H](C)O)cc1 [Example 22, Hbz-Leu-Asp-Thr-Ser-Leu]	51%	401 µM	
CC(C)C[C@H](NC(=O)[C@H](CO)NC(=O)[C@@H](NC(=O)[C@H](CC(=O)O)NC(=O)[C@H](CC(C)C)NC(=O)CCCc1ccc2ccc3cccc4ccc1c2c34)[C@@H](C)O)C(N)=O [Example 23, Pba-Leu-Asp-Thr-Ser-Leu]			inhibition at 50 µM [2]: 88%; IC50 (IC50 (μM)): 2.8 µM
CC(C)C[C@H](NC(=O)[C@H](CO)NC(=O)[C@@H](NC(=O)[C@H](CC(=O)O)NC(=O)[C@H](CC(C)C)NC(=O)C1C(C)(C)C1(C)C)[C@@H](C)O)C(N)=O [Example 25, Tpc-Leu-Asp-Thr-Ser-Leu]	39%	121 µM	
CC(C)C[C@H](NC(=O)[C@H](CO)NC(=O)[C@@H](NC(=O)[C@H](CC(=O)O)NC(=O)[C@H](CC(C)C)NC(=O)Cc1ccccc1)[C@@H](C)O)C(N)=O [Example 26, Pha-Leu-Asp-Thr-Ser-Leu]			inhibition at 500 µM (HuT78, read-out: % Adhesion Inhibition 500 μM): 38%; IC50 (IC50 (μM)): 2130 µM
CC(C)C[C@H](NC(=O)[C@H](CO)NC(=O)[C@@H](NC(=O)[C@H](CC(=O)O)NC(=O)[C@H](CC(C)C)NC(=O)C(c1ccccc1)(c1ccccc1)c1ccccc1)[C@@H](C)O)C(N)=O [Example 28, Tpa-Leu-Asp-Thr-Ser-Leu]		0.3 µM	
CC(C)C[C@H](NC(=O)[C@H](CO)NC(=O)[C@@H](NC(=O)[C@H](CC(=O)O)NC(=O)[C@H](CC(C)C)NC(=O)Cc1ccc2ccc3cccc4ccc1c2c34)[C@@H](C)O)C(N)=O [Example 29, Paa-Leu-Asp-Thr-Ser-Leu]			IC50 (IC50 (μM)): 0.5 µM
CC(C)C[C@H](NC(=O)[C@H](CO)NC(=O)[C@@H](NC(=O)[C@H](CC(=O)O)NC(=O)[C@H](CC(C)C)NC(=O)[C@@H]1CCCN1C(=O)CCCc1ccc2ccc3cccc4ccc1c2c34)[C@@H](C)O)C(N)=O [Example 30, Pba-Pro-Leu-Asp-Thr-Ser-Leu] ({Butanoyl(4-pyren-1-yl)}-PLDTSL-NH2)			IC50 (IC50 (μM)): 47 µM
CC(C)C[C@H](NC(=O)[C@H](CO)NC(=O)[C@@H](NC(=O)[C@H](CC(=O)O)NC(=O)[C@H](CC(C)C)NC(=O)C(c1ccccc1)c1ccccc1)[C@@H](C)O)C(N)=O [Example 31, Dpa-Leu-Asp-Thr-Ser-Leu]		11 µM	
CC(C)C[C@H](NC(=O)[C@H](CO)NC(=O)[C@@H](NC(=O)[C@H](CC(=O)O)NC(=O)[C@H](CC(C)C)NC(=O)c1cc(-c2ccccc2)cc(-c2ccccc2)c1)[C@@H](C)O)C(N)=O [Example 32, Dphb-Leu-Asp-Thr-Ser-Leu]		15 µM	
CC(C)C[C@H](NC(=O)[C@H](CO)NC(=O)[C@@H](NC(=O)[C@H](CC(=O)O)NC(=O)[C@H](CC(C)C)NC(=O)c1ccc2ccc3cccc4ccc1c2c34)[C@@H](C)O)C(N)=O [Example 34, Pca-Leu-Asp-Thr-Ser-Leu]			IC50 (IC50 (μM)): 2.1 µM
CC(C)C[C@H](NC(=O)[C@H](CO)NC(=O)[C@@H](NC(=O)[C@H](CC(=O)O)NC(=O)[C@H](CC(C)C)NC(=O)CCCc1ccc2ccc3cccc4ccc1c2c34)[C@@H](C)O)C(N)=O [Example 36, Pba-Leu-Asp-Thr-Ser-Leu]			IC50 (IC50 (μM)): 4 µM
CC(C)C[C@H](NC(=O)[C@H](CO)NC(=O)[C@@H](NC(=O)[C@H](CC(=O)O)NC(=O)[C@H](CC(C)C)NC(=O)CC(c1ccccc1)(c1ccccc1)c1ccccc1)[C@@H](C)O)C(N)=O [Example 37, Tphp-Leu-Asp-Thr-Ser-Leu]		14 µM	
CC(C)C[C@H](NC(=O)[C@H](CO)NC(=O)[C@@H](NC(=O)[C@H](CC(=O)O)NC(=O)[C@H](CC(C)C)NC(=O)c1ccc2cc3ccccc3cc2c1)[C@@H](C)O)C(N)=O [Example 38, 2-Anc-Leu-Asp-Thr-Ser-Leu]		5.4 µM	
CC(C)C[C@H](NC(=O)[C@H](CO)NC(=O)[C@@H](NC(=O)[C@H](C)NC(=O)[C@H](CC(C)C)NC(=O)CCCc1ccc2ccc3cccc4ccc1c2c34)[C@@H](C)O)C(N)=O [Example 39, Pba-Leu-Ala-Thr-Ser-Leu] ({Butanoyl(4-pyren-1-yl)}-LATSL-NH2)			inhibition at 250 µM [2]: 100%; IC50 (IC50 (μM)): 28 µM
